Test results published in ChEMBL document CHEMBL1140654 (Bioorg Med Chem Lett, 2007).

What was measured:
[1] = molecular target: MAP kinase-activated protein kinase 3 (Homo sapiens, UniProt Q16644); assay: Inhibition of MK3; type: single protein
[2] = molecular target: MAP kinase-activated protein kinase 2 (Homo sapiens, UniProt P49137)
U-937 = assay: Inhibition of TNFalpha production in U937 cells; settings: Homo sapiens
Rattus norvegicus = assay: Inhibition of TNFalpha production in rat at 40 mg/kg, ip administered 1 hr prior to LPS challenge; type: functional; design: scale not given: the % may be the effect or the level left; settings: route intraperitoneal
[3] = molecular target: T1, MAP kinase-activated protein kinase 5 (Homo sapiens, UniProt Q8IW41); assay: Inhibition of PRAK
T1 sequence (Q8IW41 whole entry): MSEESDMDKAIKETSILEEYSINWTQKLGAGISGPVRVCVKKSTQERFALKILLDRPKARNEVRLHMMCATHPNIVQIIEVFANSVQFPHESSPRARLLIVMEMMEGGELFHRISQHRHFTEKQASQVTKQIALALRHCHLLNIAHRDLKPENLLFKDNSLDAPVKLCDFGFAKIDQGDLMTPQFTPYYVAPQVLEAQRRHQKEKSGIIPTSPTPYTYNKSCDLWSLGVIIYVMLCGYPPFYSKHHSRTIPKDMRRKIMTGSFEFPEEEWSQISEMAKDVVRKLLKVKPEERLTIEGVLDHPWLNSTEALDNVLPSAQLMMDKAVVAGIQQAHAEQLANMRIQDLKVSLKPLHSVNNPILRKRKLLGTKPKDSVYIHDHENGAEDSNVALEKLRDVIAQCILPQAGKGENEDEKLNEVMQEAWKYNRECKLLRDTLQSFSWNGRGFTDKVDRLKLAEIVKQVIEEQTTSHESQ

[4] = molecular target: Mitogen-activated protein kinase 9 (Homo sapiens, UniProt P45984); assay: Inhibition of JNK2
[5] = molecular target: Ribosomal protein S6 kinase alpha-5 (Homo sapiens, UniProt O75582); assay: Inhibition of MSK1
[6] = molecular target: T2, Inhibitor of nuclear factor kappa-B kinase subunit beta (Homo sapiens, UniProt O14920); assay: Inhibition of IKK2
T2 sequence (O14920 whole entry): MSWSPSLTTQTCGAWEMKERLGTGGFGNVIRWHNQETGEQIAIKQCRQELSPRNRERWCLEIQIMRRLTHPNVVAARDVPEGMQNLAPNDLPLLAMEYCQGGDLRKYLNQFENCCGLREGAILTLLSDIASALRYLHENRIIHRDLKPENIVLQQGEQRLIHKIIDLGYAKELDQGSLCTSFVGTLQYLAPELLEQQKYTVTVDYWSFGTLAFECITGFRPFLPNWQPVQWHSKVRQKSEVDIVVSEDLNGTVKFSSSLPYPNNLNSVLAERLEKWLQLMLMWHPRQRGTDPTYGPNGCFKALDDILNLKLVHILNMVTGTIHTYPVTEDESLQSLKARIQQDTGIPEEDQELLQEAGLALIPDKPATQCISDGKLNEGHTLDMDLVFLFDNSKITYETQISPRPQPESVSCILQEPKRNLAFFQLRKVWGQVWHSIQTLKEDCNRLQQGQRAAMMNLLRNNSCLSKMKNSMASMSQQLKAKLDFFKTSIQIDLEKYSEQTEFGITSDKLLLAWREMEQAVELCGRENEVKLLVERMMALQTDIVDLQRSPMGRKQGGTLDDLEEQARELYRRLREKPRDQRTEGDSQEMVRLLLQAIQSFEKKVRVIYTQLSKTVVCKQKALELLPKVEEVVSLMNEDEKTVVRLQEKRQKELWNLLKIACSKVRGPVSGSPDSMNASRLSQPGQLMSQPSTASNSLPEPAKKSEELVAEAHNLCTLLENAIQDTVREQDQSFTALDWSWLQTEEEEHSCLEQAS

[7] = molecular target: Mitogen-activated protein kinase 14 (Homo sapiens, UniProt Q16539); assay: Inhibition of p38alpha
[8] = molecular target: Mitogen-activated protein kinase 1 (Homo sapiens, UniProt P28482); assay: Inhibition of ERK2
[9] = molecular target: MAP kinase-interacting serine/threonine-protein kinase 1 (Homo sapiens, UniProt Q9BUB5); assay: Inhibition of MNK1
Chain of MAP kinase-interacting serine/threonine-protein kinase 1 (Q9BUB5 whole entry): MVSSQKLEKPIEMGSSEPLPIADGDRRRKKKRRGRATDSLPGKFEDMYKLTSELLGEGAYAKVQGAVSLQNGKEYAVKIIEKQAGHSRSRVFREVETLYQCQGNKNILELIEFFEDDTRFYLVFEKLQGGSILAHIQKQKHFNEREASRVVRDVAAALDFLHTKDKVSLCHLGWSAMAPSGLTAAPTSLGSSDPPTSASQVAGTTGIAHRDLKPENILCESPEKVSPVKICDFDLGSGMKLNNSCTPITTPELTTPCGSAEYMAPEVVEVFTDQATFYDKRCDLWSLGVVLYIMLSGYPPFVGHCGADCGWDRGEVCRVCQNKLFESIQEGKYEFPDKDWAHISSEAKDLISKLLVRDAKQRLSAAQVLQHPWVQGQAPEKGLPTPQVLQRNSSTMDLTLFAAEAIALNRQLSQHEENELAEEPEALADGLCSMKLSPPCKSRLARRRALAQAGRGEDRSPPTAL

Chain of MAP kinase-activated protein kinase 3 (Q16644 whole entry): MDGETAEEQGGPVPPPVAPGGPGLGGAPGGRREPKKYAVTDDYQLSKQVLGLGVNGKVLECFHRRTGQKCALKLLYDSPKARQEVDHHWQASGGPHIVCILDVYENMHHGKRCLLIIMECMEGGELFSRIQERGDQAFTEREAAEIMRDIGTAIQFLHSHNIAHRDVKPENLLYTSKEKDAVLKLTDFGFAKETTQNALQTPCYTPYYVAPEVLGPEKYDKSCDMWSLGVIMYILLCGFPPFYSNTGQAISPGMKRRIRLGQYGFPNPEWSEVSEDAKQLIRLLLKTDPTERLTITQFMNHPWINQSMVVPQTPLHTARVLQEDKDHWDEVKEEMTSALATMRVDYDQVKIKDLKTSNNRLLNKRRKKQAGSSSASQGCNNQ
Chain of MAP kinase-activated protein kinase 2 (P49137 whole entry): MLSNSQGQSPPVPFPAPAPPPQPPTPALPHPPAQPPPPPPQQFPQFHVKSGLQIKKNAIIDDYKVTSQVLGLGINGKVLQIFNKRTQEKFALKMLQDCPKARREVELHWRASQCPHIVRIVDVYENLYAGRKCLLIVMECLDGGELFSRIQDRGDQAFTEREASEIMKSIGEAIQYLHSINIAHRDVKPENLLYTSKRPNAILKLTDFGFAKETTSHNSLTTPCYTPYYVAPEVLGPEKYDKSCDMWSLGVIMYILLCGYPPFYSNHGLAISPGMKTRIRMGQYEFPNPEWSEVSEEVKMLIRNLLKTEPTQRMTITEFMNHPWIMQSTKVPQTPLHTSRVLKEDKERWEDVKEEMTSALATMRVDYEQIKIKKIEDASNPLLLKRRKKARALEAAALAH
Chain of Ribosomal protein S6 kinase alpha-5 (O75582 whole entry): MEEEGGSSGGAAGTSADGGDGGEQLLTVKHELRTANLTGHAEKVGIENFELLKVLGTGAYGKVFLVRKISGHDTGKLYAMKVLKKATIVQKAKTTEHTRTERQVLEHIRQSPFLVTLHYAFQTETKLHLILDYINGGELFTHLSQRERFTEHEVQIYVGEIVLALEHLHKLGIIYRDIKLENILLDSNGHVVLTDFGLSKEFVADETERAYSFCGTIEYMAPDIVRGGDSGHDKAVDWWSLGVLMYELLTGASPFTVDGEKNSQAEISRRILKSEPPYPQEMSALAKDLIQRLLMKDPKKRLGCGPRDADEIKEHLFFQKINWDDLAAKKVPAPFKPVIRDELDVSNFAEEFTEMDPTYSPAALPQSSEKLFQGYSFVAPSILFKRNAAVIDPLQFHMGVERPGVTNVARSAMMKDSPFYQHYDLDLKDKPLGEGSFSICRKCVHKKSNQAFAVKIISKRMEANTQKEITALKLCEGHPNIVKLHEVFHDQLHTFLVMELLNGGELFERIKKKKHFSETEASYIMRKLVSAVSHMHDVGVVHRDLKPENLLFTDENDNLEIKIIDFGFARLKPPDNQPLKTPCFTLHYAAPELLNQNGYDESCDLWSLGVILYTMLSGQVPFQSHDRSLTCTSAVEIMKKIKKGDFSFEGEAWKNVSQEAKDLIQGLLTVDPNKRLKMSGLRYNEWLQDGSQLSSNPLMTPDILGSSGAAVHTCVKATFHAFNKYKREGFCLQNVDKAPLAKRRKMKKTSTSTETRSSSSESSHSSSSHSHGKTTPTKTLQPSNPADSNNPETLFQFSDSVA
Chain of Mitogen-activated protein kinase 14 (Q16539 whole entry): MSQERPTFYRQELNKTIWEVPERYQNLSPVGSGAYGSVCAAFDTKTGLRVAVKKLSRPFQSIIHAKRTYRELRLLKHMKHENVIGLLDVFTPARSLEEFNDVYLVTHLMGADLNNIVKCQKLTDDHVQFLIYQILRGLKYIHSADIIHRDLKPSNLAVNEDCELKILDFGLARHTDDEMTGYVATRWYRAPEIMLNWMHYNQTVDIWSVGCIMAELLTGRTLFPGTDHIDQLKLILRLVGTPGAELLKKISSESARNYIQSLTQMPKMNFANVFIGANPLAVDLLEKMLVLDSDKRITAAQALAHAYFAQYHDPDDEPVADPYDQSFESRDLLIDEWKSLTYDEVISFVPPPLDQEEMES
Chain of Mitogen-activated protein kinase 9 (P45984 whole entry): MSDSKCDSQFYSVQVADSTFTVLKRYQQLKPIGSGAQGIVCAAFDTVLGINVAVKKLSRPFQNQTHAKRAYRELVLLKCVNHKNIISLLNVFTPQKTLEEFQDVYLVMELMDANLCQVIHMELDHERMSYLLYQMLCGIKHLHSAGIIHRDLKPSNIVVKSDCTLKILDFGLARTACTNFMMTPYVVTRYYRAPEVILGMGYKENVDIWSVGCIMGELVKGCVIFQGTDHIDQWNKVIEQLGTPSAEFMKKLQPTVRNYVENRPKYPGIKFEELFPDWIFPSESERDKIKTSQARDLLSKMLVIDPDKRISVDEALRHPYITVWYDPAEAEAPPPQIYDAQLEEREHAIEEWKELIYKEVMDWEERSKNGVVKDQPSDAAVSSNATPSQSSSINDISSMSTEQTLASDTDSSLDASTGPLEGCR
Chain of Mitogen-activated protein kinase 1 (P28482 whole entry): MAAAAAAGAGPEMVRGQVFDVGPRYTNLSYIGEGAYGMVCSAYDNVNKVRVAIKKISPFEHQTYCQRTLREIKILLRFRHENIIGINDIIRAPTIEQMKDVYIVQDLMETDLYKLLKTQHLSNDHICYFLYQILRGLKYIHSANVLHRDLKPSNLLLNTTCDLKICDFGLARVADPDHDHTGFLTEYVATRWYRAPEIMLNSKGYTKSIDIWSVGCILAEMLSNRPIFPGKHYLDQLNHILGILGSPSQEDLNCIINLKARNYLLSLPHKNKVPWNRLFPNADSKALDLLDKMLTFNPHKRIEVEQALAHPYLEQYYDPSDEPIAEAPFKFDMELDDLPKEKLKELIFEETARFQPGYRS

Question: For `COc1ccc2[nH]c3c(c2c1)C1CCCN(C1)C3C(=O)O` (centres undefined), which IC50 [1] is on record?
Answer: 160 µM

Question: How did the IC50 [2] turn out when `COc1ccc2[nH]c3c(c2c1)CCNC3c1nnn[nH]1` (centres undefined) was run?
Answer: 130 µM

Question: `CCOC(=O)C1c2[nH]c3ccc(OC)cc3c2C2CCN1C2` (centres undefined) was tested. Which IC50 (U-937) did it give?
Answer: 5.6 µM

Question: How did the Activity (Rattus norvegicus) turn out when `CCCOC(=O)C1c2[nH]c3ccc(OC)cc3c2C2CCN1C2` (centres undefined) was run?
Answer: 84%

Question: What about the IC50 (U-937) of the same compound?
Answer: 0.83 µM

Question: With `COc1ccc2[nH]c3c(c2c1)C1CCN(C1)C3C(=O)OCc1ccccc1` (centres undefined) as the compound, how does the IC50 (U-937) read?
Answer: 1.7 µM

Question: For `COc1ccc2[nH]c3c(c2c1)CCNC3C(=O)O` (centres undefined), which IC50 [3] is on record?
Answer: 19 µM

Question: And the IC50 [4]?
Answer: > 200 µM

Question: What about the IC50 [5] of the same compound?
Answer: > 200 µM

Question: What about the IC50 [1] of the same compound?
Answer: > 200 µM

Question: And the IC50 [6]?
Answer: > 200 µM

Question: What about the IC50 [7] of the same compound?
Answer: > 100 µM

Question: What about the IC50 [8] of the same compound?
Answer: > 100 µM

Question: Which IC50 (U-937) does the source give for `COc1ccc2[nH]c3c(c2c1)C1CCN(C1)C3C(=O)OC(C)c1ccccc1` (centres undefined) here?
Answer: 10.3 µM

Question: Which IC50 (U-937) does the source give for `C=CCOC(=O)C1c2[nH]c3ccc(OC)cc3c2C2CCN1C2` (centres undefined) here?
Answer: 14.4 µM

Question: How did the IC50 [2] turn out when `CC(=O)Oc1ccc2[nH]c3c(c2c1)CCNC3C(=O)O` (centres undefined) was run?
Answer: 170 µM

Question: `COc1ccc2[nH]c3c(c2c1)C1CCN(C1)C3C(=O)O` (centres undefined) was tested. Which IC50 [3] did it give?
Answer: 24 µM

Question: And the IC50 [4]?
Answer: > 200 µM

Question: What about the IC50 [9] of the same compound?
Answer: > 200 µM

Question: What about the IC50 (U-937) of the same compound?
Answer: 80.8 µM

Question: What about the IC50 [5] of the same compound?
Answer: > 200 µM

Question: What about the IC50 [1] of the same compound?
Answer: 90 µM

Question: And the IC50 [6]?
Answer: > 200 µM

Question: And the IC50 [7]?
Answer: > 100 µM
